Where two headings read alike, the source gives them in different places.

Data set [1] addresses T1, oestrone sulphatase (Homo sapiens, UniProt P08842).
T1 sequence (P08842 22-583): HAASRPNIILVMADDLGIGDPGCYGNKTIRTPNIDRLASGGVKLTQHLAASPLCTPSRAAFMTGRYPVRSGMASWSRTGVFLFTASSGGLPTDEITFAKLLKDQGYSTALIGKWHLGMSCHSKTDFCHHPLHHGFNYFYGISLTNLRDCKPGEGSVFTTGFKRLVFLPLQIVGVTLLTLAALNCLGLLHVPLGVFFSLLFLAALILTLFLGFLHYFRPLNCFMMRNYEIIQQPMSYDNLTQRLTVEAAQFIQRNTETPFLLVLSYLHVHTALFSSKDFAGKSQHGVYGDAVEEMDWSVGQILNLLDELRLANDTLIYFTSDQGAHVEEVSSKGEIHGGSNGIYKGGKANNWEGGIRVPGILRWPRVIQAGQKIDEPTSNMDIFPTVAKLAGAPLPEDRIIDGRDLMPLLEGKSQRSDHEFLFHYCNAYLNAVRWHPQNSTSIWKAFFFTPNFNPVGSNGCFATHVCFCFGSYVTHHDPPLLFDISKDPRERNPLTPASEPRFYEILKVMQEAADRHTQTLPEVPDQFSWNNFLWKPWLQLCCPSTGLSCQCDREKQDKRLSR

In data set [2] the target is T1, oestrone sulphatase. The class given is cell-based.
Data set [3] addresses T2, Steroid sulphatase (Steryl Sulphatase EC3.1.6.2) (Homo sapiens, UniProt P08842).
T2 construct: endogenous in cells; host or cells: MCF-7 human breast cancer cells
T2 sequence (P08842 22-583): T1 sequence (P08842 22-583)
Kind of data set: Steroid sulphatase activity in MCF-7 cells pre-incubated with inhibitor and washed. To be noted: pre-treatment 2 hours with 0.1 μM, cells washed 3 times. It is filed as cell-based.

The target of data set [4] is T2, Steroid sulphatase (Steryl Sulphatase EC3.1.6.2). Kind of data set: Steroid sulphatase activity in intact MCF-7 cells. To be noted: for Steroid Sulphatase Activity: mean ± 1 S.D.; for inhibition at 10 µM: MCF7. The class given is cell-based. The protocol: Steroid sulphatase is defined as: Steryl Sulphatase EC3.1.6.2.
Steroid sulphatase activity was measured in vitro using intact MCF-7 human breast cancer cells. This hormone dependent cell line is widely used to study the control of human breast cancer cell growth. […] Cells were maintained in Minimal Essential Medium (MEM) (Flow Laboratories, Irvine, Scotland) containing 20 mM HEPES, 5% foetal bovine serum, 2 mM glutamine, nonessential amino acids and 0.075% sodium bicarbonate. Up to 30 replicate 25 cm^2 tissue culture flasks were seeded with approximately 1×10^5 cells/flask using the above medium. Cells were grown to 80% confluency and medium was changed every third day.
Each batch of experiments included incubations of microsomes prepared from a sulphatase-positive human placenta (positive control) and flasks without cells (to assess apparent non-enzymatic hydrolysis of the substrate). The number of cell nuclei per flask was determined using a Coulter Counter after treating the cell monolayers with Zaponin. One flask in each batch was used to assess cell membrane status and viability using the Trypan Blue exclusion method (Phillips, H. J. (1973) In: Tissue culture and applications,[eds: Kruse, D. F. & Patterson, M. K.]; pp. 406–408; Academic Press, New York).
Unpaired Student's t-test was used to test the statistical significance of results.
An identical experimental protocol to that described in Example 4 was used to generate results for oestrone-3-N,N-diimethylsulphamate except that incubations contained oestrone-3-N,N-dimethylsulphaiate (5 concentrations: 0; 0.001 μM; 0.01 μM; 0.1 μM; 1 μM) in place of oestrone-3-sulphamate.

Data set [5] concerns the target T1, oestrone sulphatase. Kind of data set: Oestrone sulphatase inhibition in placental microsomes by flavanoid sulphamates. It is filed as biochemical.
Data set [6] concerns the target T3, Steroid sulphatase (Rattus norvegicus, UniProt P15589).
T3 sequence (P15589 20-577): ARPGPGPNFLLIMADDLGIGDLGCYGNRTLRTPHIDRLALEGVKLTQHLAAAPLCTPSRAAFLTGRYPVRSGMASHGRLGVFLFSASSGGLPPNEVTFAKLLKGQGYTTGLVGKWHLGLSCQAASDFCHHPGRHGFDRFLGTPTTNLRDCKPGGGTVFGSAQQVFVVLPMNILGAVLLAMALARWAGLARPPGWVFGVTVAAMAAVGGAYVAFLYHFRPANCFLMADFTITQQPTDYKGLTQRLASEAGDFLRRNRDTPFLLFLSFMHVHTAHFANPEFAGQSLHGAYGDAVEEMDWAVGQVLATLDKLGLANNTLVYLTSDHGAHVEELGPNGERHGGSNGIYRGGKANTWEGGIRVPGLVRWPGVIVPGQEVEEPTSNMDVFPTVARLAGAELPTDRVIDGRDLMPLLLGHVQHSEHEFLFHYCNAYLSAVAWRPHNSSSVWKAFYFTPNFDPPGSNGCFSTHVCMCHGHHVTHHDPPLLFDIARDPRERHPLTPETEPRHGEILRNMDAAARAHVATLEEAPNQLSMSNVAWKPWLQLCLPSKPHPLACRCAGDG
Kind of data set: % inhibition in vivo from a single dose (Example 9). More on the design: from tissue; host or cells: tissue of treated animals; tissue not given. As to conditions: single dose of 10 mg/kg.

The target of data set [7] is T4, Steroid sulphatase (Homo sapiens, UniProt P08842).
T4 sequence (P08842 22-583): T1 sequence (P08842 22-583)
As to the kind of experiment: Steroid sulphatase activity in placental microsomes. As to conditions: 10 μM.

Data set [8] has as its target T3, Steroid sulphatase. As to the kind of experiment: Steroid sulphatase activity in liver microsome preparations from rats treated subcutaneously. It is filed as in vivo. The arrangement: except that the tissue source was rat liver; from tissue; host or cells: liver of female Wistar rats. As to conditions: 10 mg/kg/day s.c. for 7 days, rat liver microsomes, mean ± 1 S.D., n = 3. On the technique in general: Liver microsomes are a subcellular fraction often used to study metabolism.

The mark [9] stands for this setting: concentration tested 1 mM (so in the source).
Setting [10] is: concentration tested 10 mM (so in the source).
Setting [11] is: concentration tested 25 mM (so in the source).
[12] abbreviates: concentration tested 50 mM (so in the source).
[13] abbreviates: concentration tested 100 mM (so in the source).

For `CCCc1c(OS(N)(=O)=O)ccc2c1CC[C@@H]1[C@@H]2CC[C@]2(C)C(=O)CC[C@@H]12` [4-n-propyl EMATE], the “% Inhibition (Mean) Placental Microsomes” value is given as 13.7% at oestrone sulphatase [1] (setting [9]); 10.2% on oestrone sulphatase [1] (setting [10]); 15.7% at oestrone sulphatase [1] (setting [11]); 16.3% at oestrone sulphatase [1] (setting [12]); 23.7% on oestrone sulphatase [1] (setting [13]).
`NS(=O)(=O)Oc1ccc(-c2coc3cc(O)cc(O)c3c2=O)cc1` [Isoflavone 5.7-dihydroxy-4′-sulphamate, 5,7-Dihydroxy Isoflavone-4′-O-Sulphamate]: the “% Inhibition MCF-7 Cells” value was determined as 23% at oestrone sulphatase [2] (0.1 μM), 83% at oestrone sulphatase [2] (1.0 μM) and 99% at oestrone sulphatase [2] (10.0 μM).
Take `CN(C)S(=O)(=O)Oc1ccc2c(c1)CC[C@@H]1[C@@H]2CC[C@]2(C)C(=O)CC[C@@H]12` [Oestrone-3-N,N-dimethylsulphamate, oestrone-3-N.N-dimethylsulphamate]: the “% reduction over control (% inhibition)” value in data set [3] came out at 18.8%; in data set [4] (inhibitor 0.001 μM) it was 17.3%; in data set [4] (inhibitor 0.01 μM) it was 44.3%; in data set [4] (inhibitor 0.1 μM), 78.9%; in data set [4] (inhibitor 1 μM) it was 85.6%. Further, the “Steroid Sulphatase Activity” value was 53.1 ± 3.4 fmol/20 hr/10^6 cells in data set [3] (mean ± 1 S.D., n = 3); 68.33 ± 3.2 fmol/20 hr/10^6 cells in data set [4] (inhibitor 0.001 μM); 46.0 ± 4.9 fmol/20 hr/10^6 cells in data set [4] (inhibitor 0.01 μM, n = 3); 17.43 ± 4.3 fmol/20 hr/10^6 cells in data set [4] (inhibitor 0.1 μM, n = 3); 11.89 ± 3.7 fmol/20 hr/10^6 cells in data set [4] (inhibitor 1 μM, n = 3).
As to `CCCc1cc2c(cc1OS(N)(=O)=O)CC[C@@H]1[C@@H]2CC[C@]2(C)C(=O)CC[C@@H]12` [2-n-propyl EMATE], the “% Inhibition (Mean) Placental Microsomes” value at oestrone sulphatase [1] (setting [9]) is 21.9%; at oestrone sulphatase [1] (setting [10]), 43.2%; at oestrone sulphatase [1] (setting [11]) it was 47.5%; at oestrone sulphatase [1] (setting [12]), 61.1%; at oestrone sulphatase [1] (setting [13]) it was 69.2%.
Regarding `C=CCc1cc2c(cc1OS(N)(=O)=O)CC[C@@H]1[C@@H]2CC[C@]2(C)C(=O)CC[C@@H]12` [2-allyl EMATE], the “% Inhibition (Mean) Placental Microsomes” value is listed as 45.6% on oestrone sulphatase [1] (setting [9]); 65.4% on oestrone sulphatase [1] (setting [10]); 75.3% on oestrone sulphatase [1] (setting [11]); 86.6% on oestrone sulphatase [1] (setting [12]); 89.6% at oestrone sulphatase [1] (setting [13]).
With flavone-6-sulphamate, the “% INHIBITION Sulphatase” value on oestrone sulphatase [5] (1 μM) stood at 26.8%; on oestrone sulphatase [5] (10 μM) it was 89.5%.
As to `COc1cc2c(cc1OS(N)(=O)=O)CC[C@@H]1[C@@H]2CC[C@]2(C)C(=O)CC[C@@H]12` [2-methoxy EMATE], the “% Inhibition (Mean) Placental Microsomes” value turned out to be 99.0% on oestrone sulphatase [1] (setting [10]), 99.7% at oestrone sulphatase [1] (setting [12]) and 99.7% at oestrone sulphatase [1] (setting [13]).
`COc1ccc(-c2coc3cc(OS(N)(=O)=O)cc(O)c3c2=O)cc1` [5-Hydroxy-4′-methoxyisoflavone 7-O-sulphamate]: the “% INHIBITION Sulphatase” value at oestrone sulphatase [5] (1 μM) is recorded as 1%; at oestrone sulphatase [5] (10 μM), 50.6%.
Regarding `COc1cc(CNC(=O)CCCC/C=C/C(C)C)ccc1OS(N)(=O)=O` [9b, (E) Methyl-γ-methyl-6-nonenamide-N-(3-methboxyphenyl4-O-sulphanate)], the “% Inhibition in vivo from a single dose of 10 mg/kg” value at Steroid sulphatase [6] was found to be 22±3%. Further, at Steroid sulphatase [7], the “% Inhibition in Placental Microsomes at 10 μM” value is 40±2%. The compound also came in with an inhibition at 10 µM in data set [4] of 99 ± 2%.
Turning to “5-hydroxy-flavone-7-sulphamate [5-hydroxy flavone-7-sulphamate]”, the “% INHIBITION Sulphatase” value came to 8% on oestrone sulphatase [5] (1 μM) and 21% at oestrone sulphatase [5] (10 μM).
For the compound `C[C@]12CC[C@@H]3c4cc([N+](=O)[O-])c(OS(N)(=O)=O)cc4CC[C@H]3[C@@H]1CCC2=O` [2-nitro EMATE], the “% Inhibition (Mean) Placental Microsomes” value at oestrone sulphatase [1] (concentration tested 0.05 mM (so in the source)) is on record as 44.5%; on oestrone sulphatase [1] (concentration tested 0.5 mM (so in the source)), 93.9%; on oestrone sulphatase [1] (concentration tested 5 mM (so in the source)) it was 99.0%; at oestrone sulphatase [1] (setting [12]), 99.4%.
Consider `NS(=O)(=O)Oc1ccc(C2CC(=O)c3c(O)cc(O)cc3O2)cc1` (stereo not shown) [5,7-dihydroxy flavanone 4′-sulphamate, 5.7-Dihydroxyflavanone 4′-O-sulphamate], for which the “% INHIBITION Sulphatase” value was 30.4% on oestrone sulphatase [5] (0.1 μM); 79.1% at oestrone sulphatase [5] (1 μM); 98.1% at oestrone sulphatase [5] (10 μM); 98% on oestrone sulphatase [5] (10 μM, listed as 5,7-dihydroxy flavanone-4′-sulphamate).
On to flavone-7-sulphamate, for which the “% INHIBITION Sulphatase” value at oestrone sulphatase [5] (50 μM) is 56.3%; on oestrone sulphatase [5] (100 μM) it was 75.3%.
Take `C[C@]12CC[C@@H]3c4ccc(OS(=O)(=O)O)cc4CC[C@H]3[C@@H]1CCC2=O` [E1-S, Oestrone-3-sulphate, reference compound]: the “Steroid Sulphatase Activity” value was 1.71 ± 0.1 nmol/30 min/200 mg protein on Steroid sulphatase [8] (assay substrate DHA-S) and 20.6 ± 0.4 nmol/30 min/200 mg protein on Steroid sulphatase [8] (assay substrate E1-S).
Regarding `NS(=O)(=O)Oc1ccc(-c2coc3cc(OS(N)(=O)=O)cc(O)c3c2=O)cc1` [Isoflavone 5-hydroxy-4′,7-bissulphamate, 5-Hydroxy Isoflavone4′-O,O-Disulphamate], the “% Inhibition MCF-7 Cells” value at oestrone sulphatase [2] (0.1 μM) stood at 28%.
As to `NS(=O)(=O)Oc1ccccc1[N+](=O)[O-]` [9c, 2-Nitrophenol-O-sulfamate], the “% Inhibition in vivo from a single dose of 10 mg/kg” value on Steroid sulphatase [6] stood at 22±3%. For the same compound, the “% Inhibition in Placental Microsomes at 10 μM” value on Steroid sulphatase [7] worked out at 40±2%. In data set [4], this compound returned an inhibition at 10 µM of 99 ± 2%.
With `C=CCc1c(OS(N)(=O)=O)ccc2c1CC[C@@H]1[C@@H]2CC[C@]2(C)C(=O)CC[C@@H]12` [4-allyl EMATE], the “% Inhibition (Mean) Placental Microsomes” value on oestrone sulphatase [1] (setting [9]) worked out at 29.1%; on oestrone sulphatase [1] (setting [10]), 54.2%; at oestrone sulphatase [1] (setting [11]) it was 59.0%; on oestrone sulphatase [1] (setting [12]) it was 65.1%; at oestrone sulphatase [1] (setting [13]), 71.9%.

A word on the inhibition: it is how much of the control response was suppressed.

The record behind these values is patent US7098199B2 (Sterix Limited, priority 1991, dated 2006).
